From patent US20090274675A1, “Migraine tonic” (priority 2008, published 2009)

Columns and labels:
migraine headache = conditions: several clinical trials in the U.S and Europe; cited from earlier work
[1] = system: women suffering from severe migraine; assay: Intravenous magnesium in intra-partum and post-partum women with severe migraine; format: in vivo, human; conditions: intravenous injection
Method: Use of magnesium is useful to control this neuronal excitability, which is one factor that perpetuates migraine. […] In this invention the unit dosage of Magnesium Citrate to be used is 250 to 500 mg. per total formulation dosage.

For `Cc1cc2nc3c(=O)[nH]c(=O)nc-3n(C[C@H](O)[C@H](O)[C@H](O)CO)c2cc1C` [riboflavin, Riboflavin], the “improvement in migraine headache” value (migraine headache) is given as “statistically significant”.

For `[Mg+2]` [magnesium, Magnesium], the “effect on severe migraine” value [1] was “dramatic effect”.
